Experimental data reported in patent US20100286283A1, “MICROTUBULE-DISRUPTNG AGENT AND CANCER CELL PROLIFERATION INHIBITOR CONTAINING THE SAME” (priority 2007, published 2010).

Legend:
tubulins [1] = experiment: Tubulin binding experiment, comigration in SDS-PAGE; conditions: for influence on comigration of NBD-PZ-CO—CH═CH—(CH2)5—CH3 with tubulins: compound coexisting with the probe
Protocol: Tubulins and a fluorescence dye, NBD-PZ or NBD-PZ-CO—CH═CH—(CH2)5—CH3 were reacted and electrophoresis (SDS-PAGE) was then performed. Binding with the tubulins was determined with comigration (fluorescence derived from NBD-PZ was detected with tubulins).

A549 cells = experiment: Viability (ED50) of A549 cells; assay type: cell-based; conditions: 24 hours culture
Protocol: (§1) ED50: concentration of 6-shogaol, which decreases the cell viability to 0.5 (50%) as compared with the control.
(§2) ED50 of 6-shogaol was examined on various cancer cells (HGC-27 cells, AGS cells, KATO III cells, Jurkat cells, A549 cells, and SW620 cells) to evaluate whether or not 6-shogaol was also effective for cancer cells other than gastric cancer cells. The culturing time was set to 24 hours.

[2] = tested on: gastric cancer cells (HGC-27 cells); experiment: Effect on tumor of gastric cancer cells transplanted to a nude mouse; assay type: in vivo; conditions: 400 μl at 0 to 200 μg/ml into the abdominal cavity for 8 days; HGC-27 subcutaneous tumor
Protocol: 2.5×10^6 gastric cancer cells (HGC-27 cells) were subcutaneously inoculated into the flank of a nude mouse (7-week-old, purchased from Japan SLC, Inc.). After 3 weeks when the tumors had reached an average volume of approximately 40 mm^3, and then 400 μl of 6-shogaol at 0 to 200 μg/ml was administered into the abdominal cavity for 8 days. The tumor volume was measured before the first administration of 6-shogaol and after one day from the eighth administration. Comparing volumes of the tumor before and after administration of 6-shogaol, its magnification was evaluated as a growth ratio of the tumor.

[3] = tested on: various cancer cells (HGC-27 cells, AGS cells, KATO III cells, Jurkat cells, A549 cells, and SW620 cells); experiment: Viability (ED50) of various cancer cells; assay type: cell-based; conditions: 24 hours culture
Protocol: as §1, §2

[4] = tested on: gastric cancer cells (HGC-27 cells, AGS cells, and KATO III cells); experiment: Cell viability of gastric cancer cells, Cell Titer 96 cell proliferation assay; assay type: cell-based; conditions: 0 to 4 μg/ml, 24 hours, HGC-27, AGS
Protocol: 1×10^4 gastric cancer cells (HGC-27 cells, AGS cells, and KATO III cells) were seeded in 96 well-plates, and incubated with 6-shogaol (0 to 4 μg/ml) for 24 hours from the next day. Viability of the cells was evaluated in a coloring method using Cell Titer 96 cell proliferation assay (Promega Co., Madison, Wis.), and an absorbance was measured. In this assay, living cells develop color with a reagent, and as the number of living cells is larger, the absorbance is higher. The cell viability was calculated by (absorbance at each addition concentration of 6-shogaol)/(absorbance at 0 μg/ml). Therefore, the viable cell ratio was 1.0 on the basis of 0 μg/ml. 6-shogaol was purchased from Wako Pure Chemical Industries, Ltd. (Osaka, Japan) (purity of 98% or more). Each gastric cancer cell was available from the cell bank in RIKEN BioResource Center (RIKEN BRC cell bank) or ATCC (American Type Culture Collection).

HGC-27 cells [5] = experiment: Influence on cell cycle, BrdU flow cytometry; assay type: cell-based; conditions: 2 μg/ml, 18 hours
Protocol: 2×10^5 gastric cancer cells (HGC-27 cells) were seeded in 12-well plates and incubated in the presence of 6-shogaol at 2 μg/ml for 18 hours from the next day, and then, further incubated in the presence of 10 μM of BrdU for 2 hours. In order to measure intake of BrdU in nuclei and DNA amounts in the nucleus, the cells were stained using a BrdU flow kit (BD Pharmingen, Inc., San Diego, Calif.). 10000 cells were analyzed with the flow cytometer manufactured by Beckman Coulter, Inc. (Fullerton, Calif.). The cells containing a large amount of DNA and a small amount of BrdU were considered to be in G2-M phase.

[6] = tested on: SH groups contained in tubulins; experiment: Quantification of SH groups of tubulin, Ellman method; assay type: biochemical; conditions: tubulins 2 μM, 100 μM of 6-shogaol
Protocol: SH groups contained in tubulins are converted to 5,5′-dithiobis-nitrobenzoic acid into thionitrobenzoate, and an absorbance of the solution at a wavelength of 412 nm (Ellman reaction) increases. The absorbance (412 nm) was measured to evaluate an influence given to an amount of SH groups.
An α,β-unsaturated carbonyl compound having a larger molecular weight reacted with more SH groups in the tubulins, and as a result, the amount of the SH groups was decreased and the absorbance (412 nm) was lowered (FIG. 8).

HGC-27 cells [7] = experiment: Viable cell ratio of HGC-27 cells, CellTiter96 cell proliferation assay; assay type: cell-based; conditions: 0 to 40 μM, 24 hours
Protocol: 1×10^4 gastric cancer cells (HGC-27 cells) were seeded in 96-well plates, and incubated with CH3—CO—CH═CH—(CH2)4—CH3, CH3—CO—(CH2)6—CH3 or CH3—CH2—CH═CH—(CH2)4—CH3 (0 to 40 μM) for 24 hours from the next day. Cell viability was evaluated in a coloring method using CellTiter96 cell proliferation assay (Promega Co., Madison, Wis.), and an absorbance was measured. In this assay, living cells develop color with a reagent, and as the number of living cells is larger, the absorbance is higher. The viable cell ratio was calculated by (absorbance at each addition concentration)/(absorbance at 0 μM). Therefore, the viable cell ratio was 1.0 on the basis of 0 μM.

tubulins [8] = experiment: Tubulin polymerization experiment, absorbance at 340 nm; assay type: biochemical; conditions: 20 μM tubulins
Protocol: Polymerization of 20 μM of tubulins was evaluated by measuring an absorbance at a wavelength of 340 nm.
Along with gradually polymerizing tubulins in a polymerization solution (80 mM PIPES, pH 6.9, 2 mM MgCl2, 0.5 mM EGTA, 5% glycerol and 1 mM GTP), an absorbance of the solution at a wavelength of 340 nm increases. The absorbance (340 nm) was measured in every 5 minutes to thus evaluate an influence given to the polymerization.

HGC-27 cells [9] = experiment: Immunostaining of actin and tubulins in gastric cancer cells; assay type: cell-based; conditions: 40 μM, 6 hours
Protocol: Gastric cancer cells (HGC-27 cells) were incubated with 6-shogaol at 2 μg/ml for 6 hours and then fixed, and actin was fluorescent-stained with Alexa Fluor phalloidin (Molecular Probes Inc., Eugene, Oreg.), and tubulins were fluorescent-stained with an anti-tubulin β antibody (Lab Vision Co., Fremont, Calif.) and Alexa Fluor 488 labeled second antibody (Molecular Probes, Inc.).
Gastric cancer cells (HGC-27 cells) were incubated with CH3—CO—CH═CH—(CH2)4—CH3, CH3—CO—(CH2)6—CH3 or CH3—CH2—CH═CH—(CH2)4—CH3 (40 μM) for 6 hours and then fixed, and tubulins were fluorescent-stained with anti-tubulin β antibody (Lab Vision Co., Fremont, Calif.) and Alexa Fluor 488 labeling second antibody (Molecular Probes, Inc.).

| Compound | influence on comigration of NBD-PZ-CO—CH═CH—(CH2)5—CH3 with tubulins (tubulins [1]) | viable cell ratio (HGC-27 cells [7]) | polymerization of tubulins (tubulins [8]; 500 μM compound) | reticulate distribution of tubulins (structure of microtubule) (HGC-27 cells [9]) | further results |
| --- | --- | --- | --- | --- | --- |
| CCCCC[C@H](O)CC(=O)CCc1ccc(O)c(OC)c1 [6-gingerol] | did not give an influence on comigration | – | – | – | – |
| CCCCC/C=C/C(=O)CCc1ccc(O)c(OC)c1 [6-shogaol] | the comigration was inhibited | – | – | – | susceptibility to 6-shogaol compared with the other cancer cells (A549 cells): low; growth ratio of tumor [2]: the growth of the tumor was inhibited; viability of various cancer cells [3]: decreased the viability; cell viability [4]: decreased the cell viability; ratio of cells in G2-M stage (HGC-27 cells [5]): significantly increased; amount of SH groups contained in the tubulins [6]: approximately the same effect as 500 μM of CH3—CO—CH═CH—(CH2)5—CH3 |
| CCC=CCCCCC [CH3—CH2—CH═CH—(CH2)4—CH3] | – | only CH3—CO—CH═CH—(CH2)4—CH3 (∘) decreased the viable cell ratio | gave no influence | only CH3—CO—CH═CH—(CH2)4—CH3 inhibited a reticulate distribution of tubulins | – |
| CCCCCCCC(C)=O [CH3—CO—(CH2)6—CH3] | – | only CH3—CO—CH═CH—(CH2)4—CH3 (∘) decreased the viable cell ratio | gave no influence | only CH3—CO—CH═CH—(CH2)4—CH3 inhibited a reticulate distribution of tubulins | – |
| CCCCCC=CC(C)=O [CH3—CO—CH═CH—(CH2)4—CH3] | – | decreased the viable cell ratio | inhibited polymerization of tubulins | inhibited a reticulate distribution of tubulins | polymerization of tubulins (tubulins [8]; 250 μM compound): inhibited polymerization of tubulins |
| CCCCCCC=CC(=O)N1CCN(c2ccc([N+](=O)[O-])c3nonc23)CC1 [NBD-PZ-CO—CH═CH—(CH2)5—CH3] | – | – | – | – | binding with tubulins (comigration) (tubulins [1]; probe reacted with tubulins, SDS-PAGE): comigrated with the tubulins |
